Like-named read-outs stand apart in the source and are kept apart here.
What was measured:
[1] = rifampin; cited from earlier work
[2] = HLMs, 3 µM alflutinib, selective inhibitor at the concentration of b13

## Nn1nnc2ccccc21 [ABT, 1-aminobenzotriazole]
CYP enzymes in HLMs
  Suppression of the production of AST5902: 98%

## O=c1c(O)c(-c2ccc(O)c(O)c2)oc2cc(O)cc(O)c12 [Quercetin, quercetin]
CYP enzymes in HLMs; [2]
  Suppression of the production of AST5902: 68%

## CO[C@H]1/C=C/O[C@@]2(C)Oc3c(C)c(O)c4c(O)c(c(/C=N/N5CCN(C)CC5)c(O)c4c3C2=O)NC(=O)/C(C)=C\C=C\[C@H](C)[C@H](O)[C@@H](C)[C@@H](O)[C@@H](C)[C@H](OC(C)=O)[C@@H]1C [Rifampin]
[1]
  In vivo concentrations: 10 to 18 µM

## Nc1ccc(S(=O)(=O)Nc2ccnn2-c2ccccc2)cc1 [Sulfaphenazole, sulfaphenazole]
CYP enzymes in HLMs; [2]
  Suppression of the production of AST5902: 45%

## Cc1ncsc1CCCl [chlormethiazole]
CYP enzymes in HLMs; HLMs, α-naphthoflavone 2 µM, chlormethiazole 24 µM
  Effect on the formation of alflutinib metabolites: no significant effects

## O=c1cc(-c2ccccc2)oc2c1ccc1ccccc12 [α-Naphthoflavone, α-naphthoflavone]
CYP enzymes in HLMs
  Effect on the formation of alflutinib metabolites: no significant effects

Source: paper PMC7608132 (Acta Pharmacologica Sinica, 2020)
